# Laboratory results: patent publication US7838674B2, “Tetracyclic lactame derivatives” (Novartis AG, priority 2007, dated 2010)
# Counter-ions that a name gives are not always drawn.
# Biological target: T1, MAPKAPK2 enzyme (HIS-MK2, Invitrogen PV4019) (Homo sapiens, UniProt P49137)
# T1 construct: His; purchased Invitrogen PV4019
# Assay: Alternative MAPKAPK2 assay (Caliper microfluidic mobility shift, HSP27-peptide)
# Assay type: biochemical
# Conditions: HIS-MK2 0.013 nM, ATP 10 μM, 60 min at 30° C.
# T1 sequence (P49137 whole entry): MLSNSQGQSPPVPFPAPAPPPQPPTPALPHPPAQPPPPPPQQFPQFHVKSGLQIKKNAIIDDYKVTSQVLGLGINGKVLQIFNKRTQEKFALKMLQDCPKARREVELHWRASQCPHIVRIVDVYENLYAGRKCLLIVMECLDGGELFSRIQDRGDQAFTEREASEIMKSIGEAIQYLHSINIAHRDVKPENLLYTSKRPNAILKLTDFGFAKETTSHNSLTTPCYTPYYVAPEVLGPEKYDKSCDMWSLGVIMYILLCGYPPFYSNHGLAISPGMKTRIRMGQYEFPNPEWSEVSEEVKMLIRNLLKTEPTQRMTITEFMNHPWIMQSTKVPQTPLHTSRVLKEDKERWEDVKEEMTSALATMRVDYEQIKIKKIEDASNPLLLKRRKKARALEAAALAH
row,IC50 [nM],Compound
1,6,"COc1ccc(-c2cc3c(cn2)CCc2c4c(n(C)c2-3)C2(CNC2)CNC4=O)cc1 [Example 163, 2-(3-Aminomethyl-azetidin-3-yl)-8-(4-methoxy-phenyl)-1-methyl-4,5-dihydro-1H-pyrrolo[2,3-f]isoquinoline-3-carboxylic acid lactam hydrochloride]"
2,22,"COc1ccc(-c2cc3c(cn2)CCc2c4c(n(C)c2-3)C2(CNC4=O)CN(C)C2)cc1 [Example 164, 2-(3-Aminomethyl-1-methyl-azetidin-3-yl)-8-(4-methoxy-phenyl)-1-methyl-4,5-dihydro-1H-pyrrolo[2,3-f]isoquinoline-3-carboxylic acid lactam]"
3,< 3,"COc1ccc(-c2cc3c(cn2)CCc2c-3[nH]c3c2C(=O)NCC32CNC2)cc1 [Example 165, 2-(3-Aminomethyl-azetidin-3-yl)-8-(4-methoxy-phenyl)-4,5-dihydro-1H-pyrrolo[2,3-f]isoquinoline-3-carboxylic acid lactam hydrochloride]"
4,79,"COCCN1CC2(CNC(=O)c3c2[nH]c2c3CCc3cnc(-c4cccc(Cl)c4)cc3-2)C1 [Example 181, 2-[3-Aminomethyl-1-(2-methoxy-ethyl)-azetidin-3-yl]-8-(3-chloro-phenyl)-4,5-dihydro-1H-pyrrolo[2,3-f]isoquinoline-3-carboxylic acid lactam]"
5,9,"CC(C)Oc1ccc(-c2cc3c(cn2)CCc2c4c(n(C)c2-3)C2(CNC4=O)CN(C)C2)cn1 [Example 183, 2-(3-Aminomethyl-1-methyl-azetidin-3-yl)-8-(6-isopropoxy-pyridin-3-yl)-1-methyl-4,5-dihydro-1H-pyrrolo[2,3-f]isoquinoline-3-carboxylic acid lactam]"
6,9,"CC(C)Oc1ccc(-c2cc3c(cn2)CCc2c4c(n(C)c2-3)C2(CNC2)CNC4=O)cn1 [Example 184, 2-(3-Aminomethyl-azetidin-3-yl)-8-(6-isopropoxy-pyridin-3-yl)-1-methyl-4,5-dihydro-1H-pyrrolo[2,3-f]isoquinoline-3-carboxylic acid lactam hydrochloride]"
7,< 3,"CC(C)Oc1ccc(-c2cc3c(cn2)CCc2c-3[nH]c3c2C(=O)NCC32CNC2)cn1 [Example 186, 2-(3-Aminomethyl-azetidin-3-yl)-8-(6-isopropoxy-pyridin-3-yl)-4,5-dihydro-1H-pyrrolo[2,3-f]isoquinoline-3-carboxylic acid lactam hydrochloride]"
8,< 3,"CN1CC2(CNC(=O)c3c2[nH]c2c3CCc3cnc(-c4cccc(Cl)c4)cc3-2)C1 [Example 188, 2-[3-Aminomethyl-1-methyl-azetidin-3-yl]-8-(3-chloro-phenyl)-4,5-dihydro-1H-pyrrolo[2,3-f]isoquinoline-3-carboxylic acid lactam]"
9,6,"Cn1c2c(c3c1C1(CNC1)CNC3=O)CCc1cnc(-c3cccc(Cl)c3)cc1-2 [Example 189, 2-[3-Aminomethyl-azetidin-3-yl]-8-(3-chloro-phenyl)-1-methyl-4,5-dihydro-1H-pyrrolo[2,3-f]isoquinoline-3-carboxylic acid lactam hydrochloride]"
10,7,"CN1CC2(CNC(=O)c3c4c(n(C)c32)-c2cc(-c3cccc(Cl)c3)ncc2CC4)C1 [Example 190, 2-[3-Aminomethyl-1-methyl-azetidin-3-yl]-8-(3-chloro-phenyl)-1-methyl-4,5-dihydro-1H-pyrrolo[2,3-f]isoquinoline-3-carboxylic acid lactam]"
11,12,"Cc1ccc(-c2cc3c(cn2)CCc2c-3[nH]c3c2C(=O)NC2(CC2)C32CC2)cn1 [Example 193, 2-(1′-Amino-bicyclopropyl-1-yl)-8-(6-methyl-pyridin-3-yl)-4,5-dihydro-1H-pyrrolo[2,3-f]isoquinoline-3-carboxylic acid lactam]"
12,42,"COc1ncc(-c2cc3c(cn2)CCc2c-3[nH]c3c2C(=O)NC2(CC2)C32CC2)cc1F [Example 194, 2-(1′-Amino-bicyclopropyl-1-yl)-8-(5-fluoro-6-methoxy-pyridin-3-yl)-4,5-dihydro-1H-pyrrolo[2,3-f]isoquinoline-3-carboxylic acid lactam]"
13,38,"CN(C)c1ccc(-c2cc3c(cn2)CCc2c-3[nH]c3c2C(=O)NC2(CC2)C32CC2)cn1 [Example 197, 2-(1′-Amino-bicyclopropyl-1-yl)-8-(6-dimethylamino-pyridin-3-yl)-4,5-dihydro-1H-pyrrolo[2,3-f]isoquinoline-3-carboxylic acid lactam]"
14,20,"O=C1NC2(CC2)C2(CC2)c2[nH]c3c(c21)CCc1cnc(-c2ccc(OC4CCOCC4)nc2)cc1-3 [Example 198, 2-(1′-Amino-bicyclopropyl-1-yl)-8-[6-(tetrahydro-pyran-4-yloxy)-pyridin-3-yl]-4,5-dihydro-1H-pyrrolo[2,3-f]isoquinoline-3-carboxylic acid lactam]"
15,23,"COc1ccc(-c2cc3c(cn2)CCc2c-3[nH]c3c2C(=O)NC2(CC2)C32CC2)cn1 [Example 199, 2-(1′-Amino-bicyclopropyl-1-yl)-8-[6-methoxy-pyridin-3-yl]-4,5-dihydro-1H-pyrrolo[2,3-f]isoquinoline-3-carboxylic acid lactam]"
16,37,"CC(C)Oc1ccc(-c2cc3c(cn2)CCc2c-3[nH]c3c2C(=O)NC2(CC2)C32CC2)cn1 [Example 200, 2-(1′-Amino-bicyclopropyl-1-yl)-8-[6-isopropoxy-pyridin-3-yl]-4,5-dihydro-1H-pyrrolo[2,3-f]isoquinoline-3-carboxylic acid lactam]"
17,34,"Cn1c2c(c3c1C1(CNC1)CNC3=O)CCc1cnc(-c3cccc(F)c3)nc1-2 [Example 203, 2-(3-Aminomethyl-azetidin-3-yl)-8-(3-fluoro-phenyl)-1-methyl-4,5-dihydro-1H-1,7,9-triaza-cyclopenta[a]naphthalene-3-carboxylic acid lactam hydrochloride]"
18,22,"CN1CC2(CNC(=O)c3c4c(n(C)c32)-c2nc(-c3cccc(F)c3)ncc2CC4)C1 [Example 204, 2-(3-Aminomethyl-1-methyl-azetidin-3-yl)-8-(3-fluoro-phenyl)-1-methyl-4,5-dihydro-1H-1,7,9-triaza-cyclopenta[a]naphthalene-3-carboxylic acid lactam]"
19,< 3,"O=C1NCC2(CNC2)c2[nH]c3c(c21)CCc1cnc(-c2ccc(F)nc2F)cc1-3 [Example 205, 2-(3-Aminomethyl-azetidin-3-yl)-8-(2,6-difluoro-pyridin-3-yl)-4,5-dihydro-1H-pyrrolo[2,3-f]isoquinoline-3-carboxylic acid lactam hydrochloride]"
20,< 3,"COc1ccc(-c2ncc3c(n2)-c2[nH]c4c(c2CC3)C(=O)NCC42CNC2)cc1 [Example 206, 2-(3-Aminomethyl-azetidin-3-yl)-8-(4-methoxy-phenyl)-4,5-dihydro-1H-1,7,9-triaza-cyclopenta[a]naphthalene-3-carboxylic acid lactam hydrochloride]"
21,< 3,"CN1CC2(C1)c1[nH]c3c(c1C(=O)NC21CC1)CCc1cnc(-c2cccc(F)c2)cc1-3 [Example 208, 2-[3-(1-Amino-cyclopropyl)-1-methyl-azetidin-3-yl]-8-(3-fluoro-phenyl)-4,5-dihydro-1H-pyrrolo[2,3-f]isoquinoline-3-carboxylic acid lactam]"
22,3,"Cn1c2c(c3c1C1(CNC1)C1(CC1)NC3=O)CCc1cnc(-c3cccc(F)c3)cc1-2 [Example 209, 2-[3-(1-Amino-cyclopropyl)-azetidin-3-yl]-8-(3-fluoro-phenyl)-1-methyl-4,5-dihydro-1H-pyrrolo[2,3-f]isoquinoline-3-carboxylic acid lactam hydrochloride]"
23,45,"CN1CC2(C1)c1c(c3c(n1C)-c1cc(-c4cccc(F)c4)ncc1CC3)C(=O)NC21CC1 [Example 210, 2-[3-(1-Amino-cyclopropyl)-1-methyl-azetidin-3-yl]-8-(3-fluoro-phenyl)-1-methyl-4,5-dihydro-1H-pyrrolo[2,3-f]isoquinoline-3-carboxylic acid lactam]"
24,< 3,"O=C1NC2(CC2)C2(CNC2)c2[nH]c3c(c21)CCc1cnc(-c2ccc(C(F)(F)F)nc2)cc1-3 [Example 211, 2-[3-(1-Amino-cyclopropyl)-azetidin-3-yl]-8-(6-trifluoromethyl-pyridin-3-yl)-4,5-dihydro-1H-pyrrolo[2,3-f]isoquinoline-3-carboxylic acid lactam hydrochloride]"
25,5,"O=C1NC2(CC2)C2(CNC2)c2[nH]c3c(c21)CCc1cnc(-c2cccc(F)c2)nc1-3 [Example 212, 2-[3-(1-Amino-cyclopropyl)-azetidin-3-yl]-8-(3-fluoro-phenyl)-4,5-dihydro-1H-1,7,9-triaza-cyclopenta[a]naphthalene-3-carboxylic acid lactam hydrochloride]"
26,19,"CN1CC2(C1)c1[nH]c3c(c1C(=O)NC21CC1)CCc1cnc(-c2cccc(F)c2)nc1-3 [Example 213, 2-[3-(1-Amino-cyclopropyl)-1-methyl-azetidin-3-yl]-8-(3-fluoro-phenyl)-4,5-dihydro-1H-1,7,9-triaza-cyclopenta[a]naphthalene-3-carboxylic acid lactam]"
27,6,"COc1ccc(-c2ncc3c(n2)-c2[nH]c4c(c2CC3)C(=O)NC2(CC2)C42CNC2)cc1 [Example 214, 2-[3-(1-Amino-cyclopropyl)-azetidin-3-yl]-8-(4-methoxy-phenyl)-4,5-dihydro-1H-1,7,9-triaza-cyclopenta[a]naphthalene-3-carboxylic acid lactam hydrochloride]"
28,18,"COc1ccc(-c2ncc3c(n2)-c2[nH]c4c(c2CC3)C(=O)NC2(CC2)C42CN(C)C2)cc1 [Example 215, 2-[3-(1-Amino-cyclopropyl)-1-methyl-azetidin-3-yl]-8-(4-methoxy-phenyl)-4,5-dihydro-1H-1,7,9-triaza-cyclopenta[a]naphthalene-3-carboxylic acid lactam]"

row,Compound,IC50 [nM]
1,"O=C1NC2(CC2)C2(CNC2)c2[nH]c3c(c21)CCc1cnc(-c2cccc(F)c2)cc1-3 [Example 180, 2-[3-(1-Amino-cyclopropyl)-azetidin-3-yl]-8-(3-fluoro-phenyl)-4,5-dihydro-1H-pyrrolo[2,3-f]isoquinoline-3-carboxylic acid lactam hydrochloride]",< 3
